Measured values from article PMC10377034, “Syntheses of 25-Adamantyl-25-alkyl-2-methylidene-1α,25-dihydroxyvitamin D3 Derivatives with Structure–Function Studies of Antagonistic and Agonistic Active Vitamin D Analogs” (Biomolecules, 2023).
Read-outs that look alike come from different tables or passages of the source.

What was measured:
[1] = tested on: CYP24A1 expression in all cells (HEK293, SW480, U937, HaCaT, MG63, H292); assay: CYP24A1 expression (RT-qPCR), all cells tested; details: 100 nM, 24 h
Protocol: (§1) HEK293 human kidney cells (RIKEN Cell Bank, Tsukuba, Japan) were cultured in Dulbecco’s modified Eagle’s medium (DMEM) (Fujifilm Wako Pure Chemical Corporation, Tokyo, Japan) containing 5% fetal bovine serum (FBS), 100 U/mL penicillin, and 0.1 mg/mL streptomycin (Nacalai Tesque, Kyoto, Japan). SW480 human colon carcinoma cells (American Type Culture Collection, Manassas, VA) and HaCaT immortalized keratinocyte cells (kindly provided by Dr. Tadashi Terui, Department of Dermatology, Nihon University School of Medicine) were cultured in DMEM containing 10% FBS, 100 U/mL penicillin, and 0.1 mg/mL streptomycin. MG63 human osteosarcoma cells (RIKEN Cell Bank) and lung-derived H292 cells (American Type Culture Collection) were cultured in minimum essential medium containing 10% FBS, 100 U/mL penicillin, and 0.1 mg/mL streptomycin. […] All cells were cultured at 37 °C in a humidified atmosphere containing 5% CO2.
(§2) For gene expression analysis, 1 × 10^4 cells per well were plated in a 24-well plate. After 24 h, the cells were treated with an ethanol control or 100 nM of each test compound for 24 h. […] Real-time PCR was performed on the ABI PRISM 7000 sequence detection system (Thermo Fisher Scientific, Waltham, MA, USA) using Power SYBR Green PCR master mix (Thermo Fisher Scientific).

[2] = molecular target: T1, VDR with SRC-1 (Homo sapiens, UniProt P11473); assay: Mammalian two-hybrid assay, VDR binding to SRC-1
T1 sequence (P11473 1-427): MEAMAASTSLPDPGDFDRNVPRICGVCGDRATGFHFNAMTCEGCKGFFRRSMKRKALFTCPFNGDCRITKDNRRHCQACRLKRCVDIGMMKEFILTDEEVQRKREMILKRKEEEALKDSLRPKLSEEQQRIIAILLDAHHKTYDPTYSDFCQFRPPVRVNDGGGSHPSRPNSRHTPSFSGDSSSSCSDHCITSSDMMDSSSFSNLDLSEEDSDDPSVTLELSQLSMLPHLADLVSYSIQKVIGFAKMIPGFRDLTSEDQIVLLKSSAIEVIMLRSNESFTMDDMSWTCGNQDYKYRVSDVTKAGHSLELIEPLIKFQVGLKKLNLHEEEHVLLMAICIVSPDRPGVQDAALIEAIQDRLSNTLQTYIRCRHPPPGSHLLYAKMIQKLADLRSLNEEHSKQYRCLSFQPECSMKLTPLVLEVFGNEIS
T1 sequence (Q15788 595-771 partner limits assumed): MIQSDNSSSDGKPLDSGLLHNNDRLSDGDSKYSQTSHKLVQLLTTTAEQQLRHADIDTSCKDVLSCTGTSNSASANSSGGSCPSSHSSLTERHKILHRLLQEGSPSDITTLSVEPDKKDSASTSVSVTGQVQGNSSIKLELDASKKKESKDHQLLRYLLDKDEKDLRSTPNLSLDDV
Protocol: (§3) We used the expression plasmids pCMX-VDR, pCMX-VP16- VDR, pCMX-GAL4-RXRα, pCMX-GAL4-SRC-1, and pCMX-GAL4- N-CoR, as reported previously [43]. […] We used luciferase reporters: VDR-responsive Sppx3-tk-LUC and GAL4-responsive MH100(UAS) × 4-tk-LUC reporters [43].
(§4) Transfections of 50 ng of TK-Spp × 3-LUC reporter plasmid, 10 ng of pCMX-β-galactosidase, and 15 ng of pCMX-VDR for each well of a 96-well plate were performed in HEK293 cells using the calcium phosphate coprecipitation method, as described previously [43]. The mammalian two-hybrid assay for cofactor interaction with VDR used 50 ng of TK-MH100(UAS) × 3- LUC reporter plasmid, 10 ng of pCMX-β-galactosidase, 15 ng of pCMX-GAL4-RXRα, pCMX-GAL4-SRC1, or pCMX-GAL4-NCoR, and 15 ng of pCMX-VP16-VDR for each well of a 96-well plate. Luciferase and β-galactosidase activities were measured with a luminometer and a microplate reader (Molecular Devices, Sun Jose, CA, USA), respectively. Luciferase values were normalized to the internal β-galactosidase control.
(§5) (B) Effects on the interactions between the VDR and SRC-1. HEK293 cells were co-transfected with CMX-GAL4-SRC-1, CMX-VP16-VDR, and MH100 (UAS) × 4-tk-LUC and were treated with each compound over a range of concentrations. (C) Effects on interactions of the VDR with NCoR-1. HEK293 cells were co-transfected with CMX-GAL4-N-CoR in combination with CMX-VP16-VDR and MH100 (UAS) × 4-tk-LUC and were treated with each compound over a range of concentrations.

[3] = molecular target: T2, VDR with RXRα (Homo sapiens, UniProt P11473); assay: Mammalian two-hybrid assay, interaction of the VDR with RXRα
T2 sequence (P11473 1-427): T1 sequence (P11473 1-427)
T2 sequence (P19793 1-462 partner): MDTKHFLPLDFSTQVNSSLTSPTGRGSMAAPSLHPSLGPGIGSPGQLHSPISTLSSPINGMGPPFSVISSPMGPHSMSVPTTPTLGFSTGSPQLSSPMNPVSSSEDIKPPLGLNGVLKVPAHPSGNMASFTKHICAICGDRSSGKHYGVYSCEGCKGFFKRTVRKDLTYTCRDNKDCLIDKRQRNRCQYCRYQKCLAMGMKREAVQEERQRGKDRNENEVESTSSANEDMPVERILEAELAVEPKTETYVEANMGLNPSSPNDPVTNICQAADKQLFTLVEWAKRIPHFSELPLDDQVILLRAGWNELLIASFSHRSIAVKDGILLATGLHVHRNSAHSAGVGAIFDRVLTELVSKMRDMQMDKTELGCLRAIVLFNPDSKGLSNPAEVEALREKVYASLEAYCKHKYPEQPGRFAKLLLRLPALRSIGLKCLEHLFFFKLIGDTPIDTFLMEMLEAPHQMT
Protocol: as §3, §4, §5

[4] = tested on: human dedifferentiated fat (DFAT) cells; assay: Osteogenic differentiation assay: ALP activity in human DFAT cells; format: cell-based; details: osteogenic medium, 100 nM, 7 days, natural hormone 1 = 100%
Protocol: Mature adipocytes from the adipose tissue of mammals such as humans and rodents can be dedifferentiated into pluripotent cells using ceiling culture. Dedifferentiated fat (DFAT) cells have potential applications in both regenerative medicine and injury healing, as well as mesenchymal stem cells, embryonic stem cells, and induced pluripotent stem cells. The osteogenic activity of vitamin D derivatives was assessed based on alkaline phosphatase (ALP) activity.
Samples of human subcutaneous adipose tissue were obtained from patients who underwent surgery in the Department of Pediatric Surgery at Nihon University Itabashi Hospital (Tokyo, Japan). The patients gave their written informed consent, and the Ethics Committee of Nihon University School of Medicine approved this study. We prepared dedifferentiated fat (DFAT) cells using the ceiling culture method, as described previously. Briefly, the adipose tissue (approximately 1 g) was cut into small pieces and digested with a 0.1% type I collagenase solution (Koken Co., Ltd., Tokyo, Japan). […] The cells that adhered to the upper surface of the flasks were cultured for conversion to dedifferentiated fat cells. […] Cells at passages 2–4 were used for differentiation experiments.
Cells were grown to confluency in 24-well plates and incubated for a week in DMEM containing 10% FBS, 100 nM dexamethasone (Merk), 10 mM β-glycerophosphate (Merk), and […] L-ascorbic acid-2-phosphate (Merk), with 100 nM of each compound. The induction medium was replaced on day 4. The alkaline phosphatase (ALP) activity in the cell lysates was determined on day 7 with a lab assay ALP kit (Fujifilm wako). The total protein content was determined with the BCA protein assay kit (Thermo Fisher Scientific). ALP levels were normalized to the total protein content.

[5] = molecular target: T3, recombinant hVDR-LBD (Homo sapiens, UniProt P11473); assay: biochemical
T3 sequence (P11473 140-427): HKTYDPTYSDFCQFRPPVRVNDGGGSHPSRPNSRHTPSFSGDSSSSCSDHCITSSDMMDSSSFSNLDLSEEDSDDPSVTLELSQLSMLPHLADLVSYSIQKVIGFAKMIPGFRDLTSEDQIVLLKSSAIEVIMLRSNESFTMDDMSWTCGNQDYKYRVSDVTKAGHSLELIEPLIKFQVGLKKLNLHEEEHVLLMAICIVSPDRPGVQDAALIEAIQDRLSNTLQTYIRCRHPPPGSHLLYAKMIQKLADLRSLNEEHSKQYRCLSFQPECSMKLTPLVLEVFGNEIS
Protocol: (§6) The pGEX-hVDR and pGEX were expressed for a GST-VDR fusion protein and a control GST protein, respectively, in Escherichia coli BL21 (Merck, Darmstadt, Germany). The bacteria were lysed by sonication in a sonication buffer (50 mM Tris-HCl, pH 8.0, 50 mM NaCl, 1 mM EDTA, and 1 mM DTT). The supernatant proteins (1 μg) were diluted in a binding buffer (25 mM Tris, pH 7.5, 100 mM KCl, 25 mM DTT, 4 mM CHAPS, pH 7.5) containing bovine serum albumin (100 μg/mL). A solution containing each test compound in 15 μL of EtOH was added to 570 μL of the GST protein solution in each tube. After being vortexed 2–3 times, the mixture was incubated for 30 min at room temperature. […] After being vortexed 2–3 times, the whole mixture was allowed to stand at 4 °C for 20 h, and 400 μL of dextran-coated charcoal solution (Sigma) was added to remove free ligands.
(§7) All values represent the means, and error bars are the standard deviations derived from triplicate assays.

[6] = molecular target: T3, recombinant hVDR-LBD; details: for fold lower activity of rapidly eluting epimer than the other 25-epimer: affinity for human VDR, within each 25-epimer pair; for VDR affinity, % of that of 1,25(OH)2D3: relative to 1,25(OH)2D3
Protocol: as §6, §7

[7] = molecular target: T4, hVDR (Homo sapiens, UniProt P11473); assay: VDR transactivation luciferase reporter assay in HEK293 cells (SPP×3-tk-LUC); format: cell-based; details: for Transcriptional activity efficacy: 1,25(OH)2D3 = 100%; for Emax: read-out: Transcriptional Activity % Efficacy of That of 1 (converted)
T4 construct: expressed in transfected cells; host or cells: HEK293
T4 sequence (P11473 1-427): T1 sequence (P11473 1-427)
Protocol: The transcriptional activity of the 25-alkylvitamin D analogs on the VDR was evaluated via a luciferase reporter assay in HEK293 human kidney cells transfected with an hVDR expression vector and a luciferase reporter with mouse osteopontin vitamin D response elements (VDREs, SPP×3-tk-LUC).
Transfections of 50 ng of TK-Spp × 3-LUC reporter plasmid, 10 ng of pCMX-β-galactosidase, and 15 ng of pCMX-VDR for each well of a 96-well plate were performed in HEK293 cells using the calcium phosphate coprecipitation method, as described previously. The mammalian two-hybrid assay for cofactor interaction with VDR used 50 ng of TK-MH100(UAS) × 3- LUC reporter plasmid, 10 ng of pCMX-β-galactosidase, 15 ng of pCMX-GAL4-RXRα, pCMX-GAL4-SRC1, or pCMX-GAL4-NCoR, and 15 ng of pCMX-VP16-VDR for each well of a 96-well plate. Luciferase and β-galactosidase activities were measured with a luminometer and a microplate reader (Molecular Devices, Sun Jose, CA, USA), respectively. Luciferase values were normalized to the internal β-galactosidase control.
HEK293 cells were co-transfected with TK-Spp × 3-LUC reporter plasmid and pCMX−VDR, and 8 h after transfection the cells were treated with several concentrations of each compound. After 24 h, the cells were harvested for assaying luciferase and β-galactosidase activity using a luminometer (Molecular Devices, Sunnyvale, CA, USA).

[8] = molecular target: T5, VDR with NCoR (Homo sapiens, UniProt P11473); assay: Mammalian two-hybrid assay, dissociation of NCoR from the VDR
T5 sequence (P11473 1-427): T1 sequence (P11473 1-427)
Protocol: as §3, §4, §5

[9] = tested on: VDR; assay: VDR affinity, previously reported; format: binding; details: 25R versus 25S epimer; values of ref 42
[10] = tested on: VDR; details: literature values; read-out: VDR Affinity IC50; cited from earlier work
[11] = tested on: VDR; details: literature values, cited from earlier work
[12] = tested on: CYP24A1 expression in H292 cells; assay: CYP24A1 expression (RT-qPCR) in H292 cells; details: H292 lung cells, 100 nM, 24 h
Protocol: as §1, §2

[13] = tested on: CYP24A1 expression in HaCaT cells; assay: CYP24A1 expression (RT-qPCR) in HaCaT cells; details: HaCaT skin cells, 100 nM, 24 h
Protocol: (§8) SW480 human colon carcinoma cells (American Type Culture Collection, Manassas, VA) and HaCaT immortalized keratinocyte cells (kindly provided by Dr. Tadashi Terui, Department of Dermatology, Nihon University School of Medicine) were cultured in DMEM containing 10% FBS, 100 U/mL penicillin, and 0.1 mg/mL streptomycin. […] All cells were cultured at 37 °C in a humidified atmosphere containing 5% CO2.
(§9) For gene expression analysis, 1 × 10^4 cells per well were plated in a 24-well plate. After 24 h, the cells were treated with an ethanol control or 100 nM of each test compound for 24 h. The total RNAs from the samples were extracted using the acid guanidine thiocyanate phenol/chloroform method [57], and cDNAs were synthesized using the ImProm-II reverse transcription system (Promega, Madison, WI) [43]. Real-time PCR was performed on the ABI PRISM 7000 sequence detection system (Thermo Fisher Scientific, Waltham, MA, USA) using Power SYBR Green PCR master mix (Thermo Fisher Scientific).
(§10) One-way ANOVA followed by Turkey’s multiple comparisons: ※ p < 0.05, ※※ p < 0.01, ※※※ p < 0.001 versus vehicle control.

[14] = tested on: CYP24A1 expression in HEK293 cells; assay: CYP24A1 expression (RT-qPCR) in HEK293 cells; details: HEK293 kidney cells, 100 nM, 24 h
Protocol: as §1, §2

[15] = tested on: CYP24A1 expression in SW480 cells; assay: CYP24A1 expression (RT-qPCR) in SW480 cells; details: SW480 intestine cells, 100 nM, 24 h
Protocol: as §1, §2

[16] = tested on: CYP24A1 expression in MG63 cells; assay: CYP24A1 expression (RT-qPCR) in MG63 cells; details: MG63 bone cells, 100 nM, 24 h
Protocol: as §1, §2

[17] = tested on: CYP24A1 expression in U937 cells; assay: CYP24A1 expression (RT-qPCR) in U937 cells; details: U937 blood cells, 100 nM, 24 h
Protocol: as §8, §9, §10

[18] = read-out: Transcriptional activity EC50
[19] = this study, read-out: Transcriptional Activity EC50

SMILES	CYP24A1 expression activity in all cells [1]	EC50 [2] [nM]	EC50 [3] [nM]	ALP activity [4] [%]	IC50 [5] [nM]	fold lower activity of rapidly eluting epimer than the other 25-epimer [6]	VDR affinity, % of that of 1,25(OH)2D3 [6] [%]	Transcriptional activity efficacy [7] [%]	EC50 [7, 18] [nM]	Emax ([7]; this study) [%]	EC50 [7, 19] [nM]	IC50 [8] [nM]	other results
C=C1[C@H](O)CC(=C/C=C2\CCC[C@]3(C)[C@@H]([C@H](C)CC#C[C@](C)(O)C45CC6CC(CC(C6)C4)C5)CC[C@@H]23)C[C@H]1O [ADKM1, (25R)-25-(1-Adamantyl)-1α,25-dihydroxy-2-methylidene-23-yne-19,27-dinorvitamin D3]	10-50%	8.4	1.1	41	6.2	5–11 fold	6	78	0.53	78	0.5	2.3	–
C=C1[C@H](O)CC(=C/C=C2\CCC[C@]3(C)[C@@H]([C@H](C)CC#C[C@@](O)(CCCC)C45CC6CC(CC(C6)C4)C5)CC[C@@H]23)C[C@H]1O [ADKM5, (25R)-25-(1-Adamantyl)-1α,25-dihydroxy-2-methylidene-26-propyl-23-yne-19,27-dinorvitamin D3]	10-50%	2.4	5.2	19	23.4	5–11 fold	2	83	2.63	83	2.6	8.5	–
C=C1[C@H](O)CC(=C/C=C2\CCC[C@]3(C)[C@@H]([C@H](C)CC#C[C@@](O)(CC)C45CC6CC(CC(C6)C4)C5)CC[C@@H]23)C[C@H]1O [ADKM3, (25R)-25-(1-Adamantyl)-1a,25-dihydroxy-26-methyl-2-methylidene-23-yne-19,27-dinorvitamin D3]	10-50%	10.2	1.1	40.4	6.7	5–11 fold	6	90	2.33	90	2.3	6.3	–
C=C1[C@H](O)CC(=C/C=C2\CCC[C@]3(C)[C@@H]([C@H](C)CC#C[C@H](O)C45CC6CC(CC(C6)C4)C5)CC[C@@H]23)C[C@H]1O [ADTK2]	–	–	–	–	–	–	–	–	–	–	–	–	times less potent than 5b (25S) [9]: 24 times; IC50 [10]: 12 nM; Transcriptional Activity % Efficacy of That of 1 [11]: > 38%; EC50 ([11]; read-out: Transcriptional Activity EC50): 6.6 nM
C=C1[C@H](O)CC(=C/C=C2\CCC[C@]3(C)[C@@H]([C@H](C)CC#C[C@@](C)(O)C45CC6CC(CC(C6)C4)C5)CC[C@@H]23)C[C@H]1O [ADKM2, (25S)-25-(1-Adamantyl)-1α,25-dihydroxy-2-methylidene-23-yne-19,27-dinorvitamin D3]	–	0.6	0.1	98.8	0.6	–	67	101	–	101	0.2	0.4	CYP24A1 expression relative to natural hormone 1 [12]: 50.1%; CYP24A1 expression relative to natural hormone 1 [13]: 85.6%; CYP24A1 expression relative to natural hormone 1 [14]: 33.2%; CYP24A1 expression relative to natural hormone 1 [15]: 42.3%; CYP24A1 expression relative to natural hormone 1 [16]: 63%; CYP24A1 expression relative to natural hormone 1 [17]: 77.8%
